ChEMBL document CHEMBL1145363, “Discovery of 6-ethyl-2,4-diaminopyrimidine-based small molecule renin inhibitors” (Bioorg Med Chem Lett, 2007)
In brackets after ≈: the same amount, converted by molar mass.

Assays:
[1] = target: T1, Renin (Homo sapiens, UniProt P00797); experiment: Inhibition of renin
T1 sequence (P00797 whole entry): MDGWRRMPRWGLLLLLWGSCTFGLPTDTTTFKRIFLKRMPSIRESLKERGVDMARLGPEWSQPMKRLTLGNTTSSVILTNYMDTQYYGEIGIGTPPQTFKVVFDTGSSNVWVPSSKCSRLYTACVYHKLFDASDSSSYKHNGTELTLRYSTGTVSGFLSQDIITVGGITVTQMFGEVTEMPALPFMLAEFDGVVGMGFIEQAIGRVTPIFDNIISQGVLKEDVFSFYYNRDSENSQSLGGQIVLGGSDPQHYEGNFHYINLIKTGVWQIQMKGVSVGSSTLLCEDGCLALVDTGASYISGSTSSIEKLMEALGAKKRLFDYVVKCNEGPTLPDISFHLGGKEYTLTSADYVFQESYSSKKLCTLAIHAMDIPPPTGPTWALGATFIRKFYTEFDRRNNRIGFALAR

[2] = target: Cytochrome P450 3A4 (Homo sapiens, UniProt P08684); experiment: Inhibition of CYP3A4; format: ADME
Sequence of Cytochrome P450 3A4 (P08684 whole entry): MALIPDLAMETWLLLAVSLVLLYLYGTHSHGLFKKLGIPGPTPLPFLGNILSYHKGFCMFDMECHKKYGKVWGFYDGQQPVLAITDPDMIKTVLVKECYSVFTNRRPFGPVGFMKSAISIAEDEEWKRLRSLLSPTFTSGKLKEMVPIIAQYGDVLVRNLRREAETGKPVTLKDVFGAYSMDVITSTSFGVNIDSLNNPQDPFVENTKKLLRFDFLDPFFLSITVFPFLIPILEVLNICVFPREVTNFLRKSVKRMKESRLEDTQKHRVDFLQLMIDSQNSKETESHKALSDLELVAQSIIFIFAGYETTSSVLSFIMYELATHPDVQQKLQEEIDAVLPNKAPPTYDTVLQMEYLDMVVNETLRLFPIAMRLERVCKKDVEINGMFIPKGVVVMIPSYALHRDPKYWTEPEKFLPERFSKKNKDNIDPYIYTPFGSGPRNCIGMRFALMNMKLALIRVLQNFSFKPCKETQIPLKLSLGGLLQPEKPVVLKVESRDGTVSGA

[3] = target: Cathepsin D (Homo sapiens) (UniProt P07339); experiment: Inhibition of cathepsin D at 100 uM
Sequence of Cathepsin D (Homo sapiens) (P07339 65-162 limits assumed): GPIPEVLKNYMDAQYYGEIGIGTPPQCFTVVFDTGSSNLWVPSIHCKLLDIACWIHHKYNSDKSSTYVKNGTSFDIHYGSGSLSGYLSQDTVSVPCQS
Sequence of Cathepsin D (Homo sapiens) (P07339 169-412 limits assumed): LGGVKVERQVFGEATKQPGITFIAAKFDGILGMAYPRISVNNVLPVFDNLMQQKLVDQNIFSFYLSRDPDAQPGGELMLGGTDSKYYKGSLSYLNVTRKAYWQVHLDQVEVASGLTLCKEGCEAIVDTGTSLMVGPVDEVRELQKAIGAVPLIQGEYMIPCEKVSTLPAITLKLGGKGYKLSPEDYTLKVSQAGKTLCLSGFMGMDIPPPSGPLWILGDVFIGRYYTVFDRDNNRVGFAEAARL

[4] = target: T2, Cathepsin E (Homo sapiens) (UniProt P14091); experiment: Inhibition of cathepsin E at 100 uM
T2 sequence (whole entry): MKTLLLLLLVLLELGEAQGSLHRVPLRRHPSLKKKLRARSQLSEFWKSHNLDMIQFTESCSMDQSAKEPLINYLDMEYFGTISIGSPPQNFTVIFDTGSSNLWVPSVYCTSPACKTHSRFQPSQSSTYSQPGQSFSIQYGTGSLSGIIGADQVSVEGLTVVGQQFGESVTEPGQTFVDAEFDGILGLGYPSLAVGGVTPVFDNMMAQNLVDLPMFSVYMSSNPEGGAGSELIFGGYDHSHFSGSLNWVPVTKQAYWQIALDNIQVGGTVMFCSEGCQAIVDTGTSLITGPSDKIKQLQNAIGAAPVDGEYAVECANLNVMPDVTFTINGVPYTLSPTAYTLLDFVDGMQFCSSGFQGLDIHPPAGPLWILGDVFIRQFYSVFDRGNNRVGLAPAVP

[5] = species on record: Homo sapiens; experiment: Inhibition of pepsin at 100 uM
[6] = Half life in human liver microsome; format: ADME; settings: liver microsomes
[7] = Solubility of the compound; format: physicochemical
[8] = Elimination half life in Sprague-Dawley rat; format: ADME, organism-based; settings: in vivo
[9] = Plasma clearance in Sprague-Dawley rat; format: ADME, organism-based
[10] = Volume of distribution in Sprague-Dawley rat; format: ADME, organism-based; settings: in vivo, read-out: Vdss
[11] = Oral bioavailability in Sprague-Dawley rat; format: ADME, organism-based; settings: in vivo

Structure (SMILES): CCc1nc(N)nc(N)c1-c1ccc(NCc2ccc(Cl)c(Cl)c2)cc1
- IC50 [1]: 27000 nM

Structure (SMILES): COC[C@@H](O)CO[C@@H]1CNC[C@H](OCc2cc(OC)c3ccccc3c2)[C@H]1c1ccc(OCCCOCc2ccccc2OC)cc1
- IC50 [1]: 0.067 nM

Structure (SMILES): COc1ccccc1COCCCOc1ccc(N2C(=O)CNC[C@@H]2COc2ccc3c(c2)N(CCNC(C)=O)CCC3)cc1
- IC50 [1]: 0.5 nM

Structure (SMILES): CCc1nc(N)nc(N)c1-c1ccc2c(c1)N(CCNC(C)=O)CCC2
- IC50 [1]: 178 nM
- IC50 [2]: 8000 nM
- inhibition [3]: 0%
- inhibition [4]: 0%
- inhibition [5]: 0%

Structure (SMILES): CCc1nc(N)nc(N)c1-c1ccc2c(c1)N(CCCCC(=O)OC)CCC2
- IC50 [1]: 91 nM
- IC50 [2]: 12000 nM
- half-life [6]: 5 min
- inhibition [3]: 0%
- inhibition [4]: 0%
- inhibition [5]: 0%

Structure (SMILES): CCc1nc(N)nc(N)c1-c1ccc2c(c1)N(CCC(=O)OC)CCC2
- IC50 [1]: 198 nM
- IC50 [2]: 10000 nM
- half-life [6]: 5 min
- inhibition [3]: 0%
- inhibition [4]: 0%
- inhibition [5]: 0%

Structure (SMILES): CCc1nc(N)nc(N)c1-c1ccc2c(c1)N(CCCC(=O)OC)CCC2
- IC50 [1]: 120 nM
- half-life [6]: 5 min
- inhibition [3]: 0%
- inhibition [4]: 0%
- inhibition [5]: 0%

Structure (SMILES): CCc1nc(N)nc(N)c1-c1ccc2c(c1)N(CCCOC)CCC2
- IC50 [1]: 650 nM
- solubility [7]: 59.3 µg/mL (≈ 174 µM)
- IC50 [2]: 2800 nM
- half-life [8]: 66.6 min
- clearance [9]: 36.8 mL/min/kg
- Vd [10]: 1.6 L/kg
- bioavailability [11]: < 10%
- inhibition [3]: 0%
- inhibition [4]: 0%
- inhibition [5]: 0%

Structure (SMILES): CCc1nc(N)nc(N)c1-c1ccc(NCc2cc(F)cc(F)c2)cc1
- IC50 [1]: 4000 nM
